Measurements published in the supplement of paper PMC10307832.

compound: Cc1ccccc1C(C(=O)NC1CCCCC1)N(C(=O)Cn1ccnc1C)c1cccc(F)c1 [IDH-C35] + Nc1ncn([C@H]2C[C@H](O)[C@@H](CO)O2)c(=O)n1 [Decitabine] (partner 2 µM); test: relative viability (nuclei count vs DMSO), 5 days (fraction); higher = more cells survive; details: first compound 0.08 µM
How it was run: (§1)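 Relative viability divides the nuclei count in treated wells by that in vehicle wells. Lung cancer cell lines were seeded in 1536-well plates, dosed by pin tool the next day, and fixed and stained after 5 days in one step with final 0.05% Triton X-100, 1% formaldehyde and 1 ug/ml Hoechst. Dosing was a single drug or a fixed anchor-drug dose plus five library-drug doses (not always all listed) in √10 steps, and values are medians of duplicate plates imaged at 4×.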

In order of rising relative viability:
1. NCI-H2023  0.231
2. SK-MES-1  0.294
3. A549  0.313
4. NCI-H2009  0.354
5. COR-L23  0.426
6. NCI-H2170  0.428
7. SW 900  0.467
8. ChaGo-K-1  0.507
9. COR-L 105  0.559
10. NCI-H661  0.566
11. H3255  0.61
12. SK-LU-1  0.636
13. NCI-H2342  0.719
14. LOU-NH91  0.808

same assay, conditions: first compound 0.253 µM

In order of falling relative viability:
1. NCI-H596  1.04
2. EMC-BAC-2  0.988
3. NCI-H727  0.979
4. NCI-H1666  0.801
5. LOU-NH91  0.799
6. NCI-H522  0.795
7. NCI-H2342  0.745
8. SK-LU-1  0.687
9. COR-L 105  0.678
10. LCLC-103H  0.676
11. SW 1573  0.628
12. H3255  0.607
13. NCI-H2126  0.602
14. NCI-H1648  0.598
15. NCI-H1993  0.567
16. NCI-H2085  0.549
17. NCI-H661  0.541
18. ChaGo-K-1  0.531
19. COR-L23  0.471
20. NCI-H520  0.462
21. NCI-H2170  0.451
22. NCI-H838  0.414
23. NCI-H2009  0.408
24. SW 900  0.396
25. SK-MES-1  0.39
26. LK-2  0.368
27. NCI-H1650  0.358
28. HCC-366  0.344
29. A549  0.263
30. NCI-H2087  0.25
31. NCI-H2023  0.22

same assay, conditions: first compound 0.8 µM

In order of falling relative viability:
1. EMC-BAC-2  1
2. NCI-H596  0.933
3. LOU-NH91  0.795
4. NCI-H2342  0.757
5. NCI-H1666  0.747
6. LCLC-103H  0.726
7. COR-L 105  0.724
8. NCI-H522  0.72
9. NCI-H727  0.708
10. NCI-H1993  0.7
11. H3255  0.606
12. NCI-H2126  0.592
13. SK-LU-1  0.592
14. SW 1573  0.564
15. NCI-H2085  0.554
16. NCI-H661  0.546
17. NCI-H520  0.538
18. ChaGo-K-1  0.535
19. NCI-H1648  0.502
20. NCI-H2170  0.482
21. NCI-H838  0.468
22. COR-L23  0.421
23. NCI-H1650  0.408
24. HCC-366  0.403
25. NCI-H2009  0.387
26. SK-MES-1  0.379
27. A549  0.312
28. NCI-H2087  0.274
29. NCI-H2023  0.259
30. LK-2  0.205

same assay, conditions: first compound 2.53 µM

In order of rising relative viability:
1. A549  0.195
2. NCI-H2023  0.233
3. HCC-366  0.288
4. NCI-H2087  0.302
5. NCI-H2009  0.321
6. SK-MES-1  0.362
7. LK-2  0.395
8. NCI-H838  0.464
9. NCI-H1650  0.465
10. SW 900  0.472
11. COR-L23  0.478
12. NCI-H2170  0.507
13. NCI-H520  0.508
14. NCI-H1648  0.51
15. NCI-H2126  0.526
16. ChaGo-K-1  0.533
17. NCI-H661  0.535
18. SW 1573  0.544
19. NCI-H2085  0.569
20. NCI-H1666  0.606
21. H3255  0.63
22. SK-LU-1  0.65
23. NCI-H522  0.652
24. COR-L 105  0.677
25. NCI-H1993  0.693
26. NCI-H2342  0.714
27. LCLC-103H  0.744
28. LOU-NH91  0.767
29. NCI-H727  0.845
30. NCI-H596  0.853
31. EMC-BAC-2  0.925

same assay, conditions: first compound 8 µM

In order of rising relative viability:
1. A549  0.223
2. NCI-H2087  0.254
3. NCI-H2023  0.265
4. LK-2  0.289
5. HCC-366  0.324
6. NCI-H2009  0.372
7. SK-MES-1  0.377
8. SW 900  0.438
9. NCI-H1648  0.441
10. NCI-H1650  0.453
11. NCI-H2170  0.457
12. COR-L23  0.459
13. SW 1573  0.465
14. NCI-H2085  0.465
15. NCI-H838  0.486
16. NCI-H520  0.486
17. ChaGo-K-1  0.531
18. NCI-H2126  0.559
19. NCI-H1993  0.566
20. H3255  0.596
21. NCI-H661  0.602
22. COR-L 105  0.619
23. SK-LU-1  0.654
24. NCI-H1666  0.655
25. NCI-H522  0.716
26. NCI-H2342  0.744
27. LOU-NH91  0.799
28. LCLC-103H  0.834
29. NCI-H727  0.939
30. EMC-BAC-2  0.993
31. NCI-H596  1.02

compound: Cc1ccccc1C(C(=O)NC1CCCCC1)N(C(=O)Cn1ccnc1C)c1cccc(F)c1 [IDH-C35] + CS(=O)(=O)N1CCN(Cc2cc3nc(-c4cccc5[nH]ncc45)nc(N4CCOCC4)c3s2)CC1 [Pictilisib] (partner 1 µM); test: as above; details: first compound 0.08 µM
How it was run: as §1

In order of rising relative viability:
1. HCC-366  0.12
2. NCI-H520  0.211
3. NCI-H1703  0.235
4. SK-MES-1  0.335
5. EBC-1  0.397
6. NCI-H838  0.414
7. NCI-H596  0.434
8. SW 1573  0.468
9. NCI-H1666  0.471
10. NCI-H2085  0.489
11. EMC-BAC-2  0.493
12. NCI-H2126  0.494
13. NCI-H727  0.528
14. LK-2  0.584
15. NCI-H1650  0.607
16. LCLC-103H  0.7
17. Calu-6  0.875
18. NCI-H1993  0.902
19. NCI-H2087  1.15
